Active and inactive are the calls of the source.
How the values were obtained:
INS1 = test: INS-1E survival protection against cytokine death – cell-based, luminescence, retest, dose response (AID 449756); format: functional; settings: Rattus norvegicus;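 further: cell death triggered by IL-1 beta plus TNF-alpha plus IFN-gamma mixture; protective hits raise ATP signal compared with cytokine alone wells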
[1] = target: T1, Corticotropin-releasing factor receptor 2/Corticotropin-releasing factor-binding protein (Homo sapiens, UniProt P24387+Q13324); test: Dose Response confirmation of uHTS hits for small molecule antagonists of the CRF-binding protein and CRF-R2 receptor complex.; format: functional; settings: read-out: IC50_Mean
T1 sequence (Q13324 whole entry): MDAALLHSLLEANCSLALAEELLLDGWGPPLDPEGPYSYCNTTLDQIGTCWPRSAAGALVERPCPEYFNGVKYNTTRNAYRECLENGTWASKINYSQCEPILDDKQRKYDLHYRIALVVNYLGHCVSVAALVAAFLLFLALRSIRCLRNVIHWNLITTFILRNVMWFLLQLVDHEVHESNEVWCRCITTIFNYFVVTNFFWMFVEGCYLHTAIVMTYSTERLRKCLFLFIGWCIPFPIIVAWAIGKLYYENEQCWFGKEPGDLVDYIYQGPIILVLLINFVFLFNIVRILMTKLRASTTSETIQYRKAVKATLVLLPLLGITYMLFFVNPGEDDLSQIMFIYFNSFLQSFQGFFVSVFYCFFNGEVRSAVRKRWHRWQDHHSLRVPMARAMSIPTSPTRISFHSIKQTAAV
T1 sequence (P24387 whole entry): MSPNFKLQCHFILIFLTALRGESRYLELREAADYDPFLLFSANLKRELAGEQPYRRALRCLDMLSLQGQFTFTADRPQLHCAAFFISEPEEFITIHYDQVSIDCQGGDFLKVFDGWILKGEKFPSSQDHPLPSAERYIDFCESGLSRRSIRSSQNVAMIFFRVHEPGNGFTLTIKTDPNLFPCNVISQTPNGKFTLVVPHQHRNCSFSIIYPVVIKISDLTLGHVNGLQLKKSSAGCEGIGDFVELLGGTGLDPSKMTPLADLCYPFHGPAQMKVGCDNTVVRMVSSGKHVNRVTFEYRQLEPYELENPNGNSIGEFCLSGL

[2] = target: T1, Corticotropin-releasing factor receptor 2/Corticotropin-releasing factor-binding protein; test: activators of CRF receptor 2 with binding protein – uHTS hits, confirmation (AID 602473); format: functional; settings: read-out: EC50_Mean
Cytochrome P450 3A4 = Cytochrome P450 3A4 (Homo sapiens, UniProt P08684);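 further: CYP3A4 tested as one member of a cytochrome P450 panel screen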
Sequence of Cytochrome P450 3A4 (P08684 whole entry): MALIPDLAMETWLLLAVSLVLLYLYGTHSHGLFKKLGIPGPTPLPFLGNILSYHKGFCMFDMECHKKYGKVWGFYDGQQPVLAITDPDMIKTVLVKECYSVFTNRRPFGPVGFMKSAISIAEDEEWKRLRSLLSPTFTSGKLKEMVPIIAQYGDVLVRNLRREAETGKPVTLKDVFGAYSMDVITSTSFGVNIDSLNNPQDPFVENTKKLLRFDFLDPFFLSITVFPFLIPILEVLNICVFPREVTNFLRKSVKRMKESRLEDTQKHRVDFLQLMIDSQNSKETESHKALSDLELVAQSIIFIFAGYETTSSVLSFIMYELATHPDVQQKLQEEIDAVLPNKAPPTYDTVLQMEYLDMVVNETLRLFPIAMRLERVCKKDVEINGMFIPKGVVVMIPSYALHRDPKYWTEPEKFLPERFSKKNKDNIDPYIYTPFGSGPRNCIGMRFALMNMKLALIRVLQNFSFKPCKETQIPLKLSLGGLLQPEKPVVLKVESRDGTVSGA

Cytochrome P450 2C9 = Cytochrome P450 2C9 (Homo sapiens, UniProt P11712)
Sequence of Cytochrome P450 2C9 (P11712 whole entry): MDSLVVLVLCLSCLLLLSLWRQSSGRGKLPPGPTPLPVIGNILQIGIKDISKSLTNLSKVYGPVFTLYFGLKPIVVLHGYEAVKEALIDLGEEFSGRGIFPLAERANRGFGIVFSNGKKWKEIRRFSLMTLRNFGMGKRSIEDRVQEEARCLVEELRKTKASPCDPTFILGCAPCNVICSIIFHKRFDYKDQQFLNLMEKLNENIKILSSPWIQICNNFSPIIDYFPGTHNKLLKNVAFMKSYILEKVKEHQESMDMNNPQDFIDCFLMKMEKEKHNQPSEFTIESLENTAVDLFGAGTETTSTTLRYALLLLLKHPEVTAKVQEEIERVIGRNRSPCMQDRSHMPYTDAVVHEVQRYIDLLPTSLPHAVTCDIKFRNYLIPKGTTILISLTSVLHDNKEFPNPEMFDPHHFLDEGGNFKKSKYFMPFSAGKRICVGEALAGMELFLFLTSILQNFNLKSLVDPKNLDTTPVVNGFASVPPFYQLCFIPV

Cytochrome P450 2D6 = Cytochrome P450 2D6 (Homo sapiens, UniProt P10635);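 further: CYP2D6 member of a cytochrome P450 panel assay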
Sequence of Cytochrome P450 2D6 (P10635 whole entry): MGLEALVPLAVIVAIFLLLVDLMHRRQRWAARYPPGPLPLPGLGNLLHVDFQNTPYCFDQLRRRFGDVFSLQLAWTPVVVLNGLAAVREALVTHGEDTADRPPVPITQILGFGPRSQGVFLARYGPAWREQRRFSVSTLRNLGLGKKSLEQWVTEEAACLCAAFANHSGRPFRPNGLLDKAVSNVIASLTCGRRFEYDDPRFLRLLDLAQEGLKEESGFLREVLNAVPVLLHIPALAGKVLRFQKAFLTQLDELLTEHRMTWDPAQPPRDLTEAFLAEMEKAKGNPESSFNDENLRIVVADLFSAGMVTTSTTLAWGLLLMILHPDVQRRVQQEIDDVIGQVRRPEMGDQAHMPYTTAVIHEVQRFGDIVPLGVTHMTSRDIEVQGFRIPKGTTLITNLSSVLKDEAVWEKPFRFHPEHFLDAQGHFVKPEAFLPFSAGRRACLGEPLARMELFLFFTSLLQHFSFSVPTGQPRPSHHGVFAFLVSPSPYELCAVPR

Cytochrome P450 2C19 = Cytochrome P450 2C19 (Homo sapiens, UniProt P33261); test: Cytochrome panel assay with activity outcomes. Panel member name: p450-cyp2c19 Compounds with AC50 equal or less than 10 uM are considered active; format: functional
Sequence of Cytochrome P450 2C19 (P33261 whole entry): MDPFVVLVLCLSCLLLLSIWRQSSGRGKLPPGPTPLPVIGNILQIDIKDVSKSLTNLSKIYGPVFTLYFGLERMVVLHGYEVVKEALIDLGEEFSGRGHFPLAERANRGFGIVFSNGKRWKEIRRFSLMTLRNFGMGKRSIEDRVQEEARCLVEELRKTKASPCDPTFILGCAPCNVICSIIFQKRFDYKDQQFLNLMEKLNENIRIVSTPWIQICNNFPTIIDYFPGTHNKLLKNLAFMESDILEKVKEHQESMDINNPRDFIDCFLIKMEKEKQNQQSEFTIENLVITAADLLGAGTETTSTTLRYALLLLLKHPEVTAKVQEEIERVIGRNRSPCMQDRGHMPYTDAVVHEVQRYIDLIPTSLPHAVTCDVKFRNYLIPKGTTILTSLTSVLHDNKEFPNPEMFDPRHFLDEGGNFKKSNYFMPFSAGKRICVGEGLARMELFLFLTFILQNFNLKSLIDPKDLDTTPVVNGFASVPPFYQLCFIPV

Cytochrome P450 1A2 = target: T2, Cytochrome P450 1A2 (Homo sapiens, UniProt P05177);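 further: PubChem cytochrome P450 panel assay, CYP1A2 panel member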
T2 sequence (P05177 whole entry): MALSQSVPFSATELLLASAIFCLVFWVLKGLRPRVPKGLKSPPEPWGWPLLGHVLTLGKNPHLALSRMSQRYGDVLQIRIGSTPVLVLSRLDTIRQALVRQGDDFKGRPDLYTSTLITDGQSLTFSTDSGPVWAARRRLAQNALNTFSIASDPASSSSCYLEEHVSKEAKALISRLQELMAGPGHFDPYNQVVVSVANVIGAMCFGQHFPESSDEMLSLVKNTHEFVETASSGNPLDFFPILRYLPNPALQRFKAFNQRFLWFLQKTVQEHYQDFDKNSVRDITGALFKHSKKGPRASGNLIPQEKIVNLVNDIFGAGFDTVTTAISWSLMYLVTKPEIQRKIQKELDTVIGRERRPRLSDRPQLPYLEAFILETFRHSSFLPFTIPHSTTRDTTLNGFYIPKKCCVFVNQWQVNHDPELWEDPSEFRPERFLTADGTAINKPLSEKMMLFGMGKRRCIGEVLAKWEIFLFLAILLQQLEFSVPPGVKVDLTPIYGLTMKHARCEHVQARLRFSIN

`CCSc1ccc(NC(=O)c2cccnc2)cc1` was tested, and the AC50 (INS1) was 7.23 µM (active).

With `Cc1ccc(C)c(NC(=O)Cn2cnc3c(oc4ccccc43)c2=O)c1` the IC50 [1] was > 47.1 µM (inactive) and the EC50 [2] was > 53 µM (inactive).

With `C[N+](C)(C)CCC(=O)c1cccc2ccccc12` the AC50 (Cytochrome P450 3A4) was 0.2 µM (inconclusive), the AC50 (Cytochrome P450 2C9) was 12.6 µM (inconclusive) and the AC50 (Cytochrome P450 2D6) was 10 µM (inconclusive).

`COc1ccccc1CNC(=O)C1CC(=O)N(C2CCCC2)C1` (centres undefined) was tested, and the AC50 (Cytochrome P450 3A4) was 22.4 µM (inconclusive), the AC50 (Cytochrome P450 2C9) was 0.0224 µM (inconclusive) and the AC50 (Cytochrome P450 2C19; read-out: AC50) was 28.2 µM (inconclusive).

In the case of `COc1ccccc1-n1cnnc1SCC(=O)NCc1cccs1`, the IC50 [1] is reported as > 47.1 µM (inactive) and the EC50 [2] is reported as > 53 µM (inactive).

`Cc1ccc(CNC(=O)c2cc(-c3ccccc3C)n(CC3CC(c4cccc([N+](=O)[O-])c4)=NO3)n2)cc1` (centres undefined) was tested, and the IC50 [1] was > 47.1 µM (inactive) and the EC50 [2] was > 53 µM (inactive).

For `CSc1nc2n(n1)C(c1cccc(F)c1)C(C(=O)Nc1ccc(C)cc1C)=C(C)N2` (centres undefined), the AC50 (Cytochrome P450 3A4) was 0.708 µM (inconclusive) and the AC50 (Cytochrome P450 2C9) was 3.98 µM (inconclusive).

For `CCOC(=O)c1ccc(NC(=O)c2cccnc2)cc1`, the AC50 (INS1) was 3.75 µM (active).

In the case of `CC(C)(C)NC(=O)C(=O)NNC(=O)c1ccccc1`, the AC50 (Cytochrome P450 2C9) is reported as 1.78 µM (inconclusive) and the AC50 (Cytochrome P450 2C19) is reported as “inconclusive”.

In the case of `CC(Sc1nnnn1-c1ccccc1)C(=O)Nc1ccccc1-c1ccccc1` (centres undefined), the IC50 [1] is reported as > 47.1 µM (inactive) and the EC50 [2] is reported as > 53 µM (inactive).

`Cc1cc(C)cc(Oc2cc(NC(=O)c3cn(C)nc3C)cc([N+](=O)[O-])c2)c1` was tested, and the AC50 (INS1) was 13.5 µM (active).

`Cc1ccc(N(Cc2ccc([N+](=O)[O-])cc2)C(=O)c2ccco2)cc1` was tested, and the AC50 (Cytochrome P450 3A4) was 28.2 µM (inconclusive), the IC50 [1] was > 47.1 µM (inactive) and the AC50 (Cytochrome P450 2D6) was 0.562 µM (inconclusive). The EC50 [2] was > 53 µM (inactive).

In the case of `COc1cc(NC(=O)c2ccccc2Cl)ccc1NC(=O)c1ccco1`, the AC50 (Cytochrome P450 2C9) is reported as 1.12 µM (inconclusive), the AC50 (Cytochrome P450 1A2) is reported as 17.8 µM (inconclusive) and the AC50 (Cytochrome P450 2D6) is reported as 22.4 µM (inconclusive).

With `COc1ccc(Cc2nnc(NC(=O)c3ccc(Cl)c([N+](=O)[O-])c3)s2)cc1` the AC50 (Cytochrome P450 3A4) was 0.631 µM (inconclusive) and the AC50 (Cytochrome P450 2C9) was 1.41 µM (inconclusive).

With `CCN(CC)CCCNC(=O)C1CCC(=O)N(c2ccc(OC)cc2)C1c1ccc(F)cc1` (centres undefined) the AC50 (Cytochrome P450 2C9) was 39.8 µM (inconclusive) and the AC50 (Cytochrome P450 2C19) was “inconclusive”.

`N#Cc1ccc(CN2CC[C@@]3(CCCN(C(=O)c4ccncc4)C3)C2)cc1` was tested, and the AC50 (Cytochrome P450 2C9) was 31.6 µM (inconclusive), the AC50 (Cytochrome P450 1A2) was 39.8 µM (inconclusive) and the AC50 (Cytochrome P450 2D6) was 20 µM (inconclusive).

`O=C(NCc1ccncc1)c1cc(-c2ccc(Cl)cc2)oc1C(F)(F)F` was tested, and the AC50 (INS1) was 18.6 µM (active).

In the case of `Cc1ccc(-n2nnnc2SCC(=O)Nc2cccnc2Cl)cc1`, the IC50 [1] is reported as > 47.1 µM (inactive) and the EC50 [2] is reported as > 53 µM (inactive).

In the case of `CCOC(=O)c1sc(NC(=O)CSc2n[nH]c(-c3ccncc3)n2)c(C#N)c1C`, the IC50 [1] is reported as 16.3 µM (active) and the EC50 [2] is reported as 8.57 µM (active).

With `CCC1=C(C[C@H]2NCCc3cc(OC)c(OC)cc32)C[C@H]2c3ccccc3CCN2C1` the AC50 (Cytochrome P450 3A4) was 3.16 µM (inconclusive) and the AC50 (Cytochrome P450 2C9) was 3.16 µM (inconclusive).

`FC(F)(F)c1ccccc1N=C(S)N1CCc2ccccc2C1` was tested, and the AC50 (INS1) was 8.78 µM (active).

`CC1=CN2C(=NC(=O)CC2(C)C(=O)N(CC(=O)NC2CCCC2)c2ccccc2C)C=C1` (centres undefined) was tested, and the IC50 [1] was > 47.1 µM (inactive) and the EC50 [2] was > 53 µM (inactive).

In the case of `CC(C)CN1CCN(Cc2cccc3nccnc23)CC1CCO` (centres undefined), the IC50 [1] is reported as > 47.1 µM (inactive) and the EC50 [2] is reported as > 53 µM (inactive).

In the case of `COc1ccc(NC2CCCN(C(=O)c3cccc(C)n3)C2)cc1OC` (centres undefined), the IC50 [1] is reported as > 47.1 µM (inactive) and the EC50 [2] is reported as > 53 µM (inactive).

With `O=C(N/N=C/c1ccccc1Cl)C1CC1` the IC50 [1] was > 47.1 µM (inactive) and the EC50 [2] was > 53 µM (inactive).

For `Oc1[nH]ncc1/C=N/c1ccc(Cl)cc1`, the IC50 [1] was > 47.1 µM (inactive) and the EC50 [2] was > 53 µM (inactive).

For `C/C(=N\Nc1nc(C)cc(-c2ccccc2)n1)c1ccccc1`, the AC50 (INS1) was 2.37 µM (active).

— ChEMBL document CHEMBL1201862, “PubChem BioAssay data set” (2004)
